Consider three molecules from patent US9057727B2, “Screening methods using G-protein coupled receptors and related compositions” (The General Hospital Corporation, priority 2007, dated 2015).

Test [1] addresses T1, human PTHR, G protein-uncoupled conformation (R^0) (Homo sapiens, UniProt Q03431).
T1 construct: expressed in transfected cells; host or cells: COS-7, transient (Fugene-6)
T1 sequence (Q03431 27-593): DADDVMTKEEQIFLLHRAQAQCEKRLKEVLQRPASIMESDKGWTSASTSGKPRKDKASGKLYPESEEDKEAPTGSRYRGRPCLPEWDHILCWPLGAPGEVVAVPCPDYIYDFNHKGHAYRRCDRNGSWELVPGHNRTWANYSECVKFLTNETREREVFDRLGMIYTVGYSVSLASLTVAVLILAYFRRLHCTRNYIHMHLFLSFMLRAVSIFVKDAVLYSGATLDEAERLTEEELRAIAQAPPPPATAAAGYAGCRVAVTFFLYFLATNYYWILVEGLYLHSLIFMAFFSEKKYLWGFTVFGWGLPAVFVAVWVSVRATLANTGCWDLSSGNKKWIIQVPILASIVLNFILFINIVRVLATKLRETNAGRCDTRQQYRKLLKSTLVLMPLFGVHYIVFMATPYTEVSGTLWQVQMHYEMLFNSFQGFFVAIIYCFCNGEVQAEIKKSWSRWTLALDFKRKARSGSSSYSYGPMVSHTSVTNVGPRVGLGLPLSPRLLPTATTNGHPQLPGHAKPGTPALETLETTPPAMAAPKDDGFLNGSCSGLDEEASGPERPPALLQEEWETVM
Kind of test: Competition binding to R0 conformation of hPTHR (COS-7 membranes, GTPγS, 125I-PTH(1-34) tracer). Particulars: Table 5; for R0:RG: fold weaker affinity for R0 than RG. In a few lines:
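Bound versus free radioligand was separated by vacuum filtration after 90 min incubation of COS-7 hPTHR membranes (20-100 μg/mL) with tracer and competing peptides. Non-specific binding came from a saturating unlabeled analog.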

The target in test [2] is T2, hPTHR (Homo sapiens, UniProt Q03431).
T2 sequence (Q03431 27-593): T1 sequence (Q03431 27-593)
The test can be described thus: Delayed cAMP response after ligand wash-out in HKRK-B64 cells. Format: cell-based. Details: expressed in transfected cells. The note with it: HKRK-B64, 60 minutes after wash-out; read-out: cAMP response after wash-out, % of maximum response.
Protocol: The cells were pre-treated for 10 minutes with either buffer alone (basal) or buffer containing ligand (100 nM); at t=0, the cells were washed, incubated in buffer for the times indicated (wash-out phase), treated with 3-isobutyl-1-methylxanthine (IBMX) for five minutes, and then assessed for intracellular cAMP. […] The cAMP level in cells treated with IBMX in the absence of ligand was 2.0±0.3 pmole/well. Data are means (±s.e.m.) of three experiments, each performed in duplicate. […] Analogs were similarly assessed in HKRK-B64 cells (90,000 hPTHRs/cell) at a single time-point, 60 minutes after ligand wash-out (FIG. 5B). For each peptide, the data are expressed as a percentile of the maximum cAMP responses (indicated in side panel) produced in cells treated concomitantly with that ligand and IBMX for 10 minutes and omitting the wash-out phase. […] Data are means (±s.e.m) of four experiments, each performed in triplicate.
The capacity of the ligands to produce sustained (or delayed) cAMP signaling responses was further examined in HKRK-B64 cells, which express the hPTHR at a more physiological level than do HKRK-B7 cells (90,000 per cell vs. 950,000/cell).
The capacities of ligands to produce a delayed cAMP response in cells after a brief exposure to the ligand was assessed as follows. The cells in 24-well plates were rinsed in binding buffer (50 mM Tris-HCl, pH 7.7, 100 mM NaCl, 5 mM KCl, 2 mM CaCl2, 5% heat-inactivated horse serum, 0.5% heat-inactivated fetal bovine serum) and then incubated in binding buffer with or without a peptide ligand (1×10^−7 or 3×10^−7 M) for 10 minutes at room temperature; the buffer was then removed, the cells were washed three times with binding buffer, incubated further in binding buffer for varying times (1 to 120 minutes); the buffer was then replaced by binding buffer containing IBMX (2 mM), and after an additional five minute incubation, the intracellular cAMP was quantified.

Test [3] concerns the target T2, hPTHR. Kind of test: cAMP dose-response in HKRK-B64 cells. Format: cell-based. Details: expressed in transfected cells. The note with it: for cAMP in HKRK-B64 cells Emax: basal 5.2 ± 0.9 pmole/well not subtracted.
Protocol: Cells were treated for 30 minutes at room temperature with varying concentrations of ligand in the presence of IBMX. […] Data are means (±s.e.m.) of four (FIG. 7A) or five (FIG. 7B) experiments, each performed in duplicate.
Following treatment of cells with a ligand, the intracellular cAMP levels were measured by radioimmuno assay, as described (Shimizu et al., J. Biol. Chem. 276:49003-49012 (2001)).
The target in test [4] is T2, hPTHR. Kind of test: Inositol phosphate production in COS-7/hPTHR cells. The format is cell-based. Details: expressed in transfected cells; host or cells: COS-7, transient (Fugene-6). The note with it: basal 330 ± 8 cpm/well not subtracted.
Protocol: The capacity of the ligands to stimulate the production of inositol phosphates (IPs) was assessed in COS-7 cells transiently transfected with the hPTHR (FIG. 7B). Cells were treated for 30 minutes at room temperature with varying concentrations of ligand. […] Data are means (±s.e.m.) of four (FIG. 7A) or five (FIG. 7B) experiments, each performed in duplicate.
The stimulation of intracellular inositol phosphates (IPs) was measured in transiently transfected COS-7 cells that were pre-labeled (16 hours) with ^3H-myo-D-inositol (2 μCi/ml). Cells were treated with ligand in DMEM containing fetal bovine serum (10%) and LiCl (30 mM) for 30 minutes; cells were lysed with ice cold trichloro acetic acid (5%) and IPs were extracted from the acid-lysates by ion-exchange filtration, as described (Shimizu et al., J. Biol. Chem. 276:49003-49012 (2001)).
The target of test [5] is T3, human PTHR, G protein-coupled conformation (RG) (Homo sapiens, UniProt Q03431).
T3 construct: expressed in transfected cells; host or cells: COS-7, transient (Fugene-6); membranes
T3 sequence (Q03431 27-593): T1 sequence (Q03431 27-593)
The test can be described thus: Competition binding to RG conformation of hPTHR (COS-7 membranes, GαsND, 125I-[Aib1,3,M]PTH(1-15) tracer). Particulars: Table 5; read-out: IC50 RG, ^125I-PTH(1-15) + GsND.

The nature of test [6]: Calcemic action in normal rats (blood ionized calcium). Particulars: normal and TPTX rats. Format: in vivo. The gist of the method: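 Corrected (pH 7.4) blood ionized calcium tracked from tail-vein samples before and 1, 2, 4 or 6 h after dosing. Peptides diluted in phosphate-citrate/NaCl/Tween 80 buffer, pH 5.0, given i.v. at 1 ml/kg to groups of six 8-week-old female SD-IGS rats; means ± SE versus vehicle.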

A short description of test [7]: Blood ionized calcium in C57BL/6 mice after intravenous injection. The note with it: 5 nmol/kg i.v. Format: in vivo. The method, then:
FIGS. 29A and 29B are graphs showing the effect of R^0 and RG selective PTH analogs on plasma cAMP and calcium in mice. FIGS. 29A and 29B show plasma cAMP concentrations in mice (C57BL/6, males, 3 months) that were administered either vehicle, rPTH(1-34) (SEQ ID NO:130), M-PTH(1-34) (M=A^1,Aib^3,Q^10,Har^11,A^12,W^14,R^19) (SEQ ID NO:12), or E^18,A^22,L^25,K^26-(EALK)-PTHrP(1-30) (SEQ ID NO:90) (5 nmol/kg; n=7 for cAMP, n=4 for calcium) intravenously. […] In the calcium experiment, blood was withdrawn before, and 1, 2, 4 and 6 hours after injection, and ionized calcium was measured using a Ca^++/pH analyzer.
We also characterized the effects of the EALK-PTHrP(1-30) peptide on cAMP production. Three month old male C57BL/6 mice were intravenously injected with either vehicle, rPTH(1-34), M-PTH(1-34) (M=A^1,Aib^3,Q^10,Har^11,A^12,W^14,R^19) or E^18,A^22,L^25,K^26-(EALK)-PTHrP(1-30) (5 nmol/kg). In the cAMP experiment (FIG. 29A), blood was withdrawn 10 minutes after injection and plasma level of cAMP was measured by RIA. In the calcium experiment (FIG. 29B), blood was withdrawn prior to injection and 1, 2, 4, and 6 hours after injection. Ionized calcium was measured using a Ca^++/pH analyzer.

Test [8] is described as follows: Bone turnover markers (PINP, osteocalcin, CTX) in mice, daily treatment. The note with it: 5 nmol/kg i.v. daily, days 6 and 13. The format is in vivo. How it is done: FIGS. 30A-30F are graphs showing the effects of PTH analogs on plasma bone markers in mice. Mice (C57BL/6, males, 3 months) were intravenously injected daily with either vehicle, rPTH(1-34) (SEQ ID NO:130), M-PTH(1-34) (SEQ ID NO:12), or (EALK)-PTHrP(1-30) (SEQ ID NO:90) (5 nmol/kg; n=7 group) for 14 days. Markers of bone turnover (PINP, CTX and osteocalcin) were assessed by ELISA in blood at day 6 (FIGS. 30A, 30C, and 30E, respectively) and 13 (FIGS. 30B, 30D, and 30F, respectively).
A second set of experiments was performed in which mice received 5 nmol/kg intravenous daily treatment with rPTH(1-34), M-PTH(1-34), or EALK-PTHrP(1-30) for 14 days. Blood samples were taken at days 6 and 13, and markers of bone turnover (PINP, osteocalcin and CTX) were assessed by ELISA.

Test [9] is described as follows: Bone structural parameters after two-week daily treatment in mice (Piximus, microCT). The format is in vivo. How it is done: FIG. 31 is a set of images showing the effects of two-week daily treatment of R^0 and RG ligands on trabecular and cortical bone structure in mice. Mice (C57BL/6, males, 3 months) were treated (i.v.) with either vehicle, rPTH(1-34) (SEQ ID NO:130), M-PTH(1-34) (SEQ ID NO:12), or E^18,A^22,L^25,K^26 (EALK)PTHrP(1-30) (SEQ ID NO:90) (5 nmol/kg; n=7 group), daily for 14 days, and femurs were analyzed by μCT.
As described above, mice were treated intravenously) with either vehicle, rPTH(1-34), M-PTH(1-34), or EALK-PTHrP(1-30) daily for 14 days.

Square brackets hold non-standard residues; d marks the D form. Ends that are not written are not given here. Peptide text beside a SMILES is read from it. hArg = N=C(N)NCCCC[C@H](N)C(=O)O; Nle = CCCC[C@H](N)C(=O)O; Aib = CC(C)(N)C(=O)O

Consider `CCCC[C@H](NC(=O)[C@H](CC(C)C)NC(=O)[C@H](CCC(N)=O)NC(=O)[C@H](Cc1c[nH]cn1)NC(=O)[C@H](CCC(=O)O)NC(=O)[C@H](CO)NC(=O)[C@@H](NC(=O)[C@H](C)N)C(C)C)C(=O)N[C@@H](Cc1c[nH]cn1)C(=O)N[C@@H](CC(N)=O)C(=O)N[C@@H](CC(C)C)C(=O)NCC(=O)N[C@@H](CCCCN)C(=O)N[C@@H](Cc1c[nH]cn1)C(=O)N[C@@H](CC(C)C)C(=O)N[C@@H](C)C(=O)N[C@@H](CO)C(=O)N[C@H](C(=O)N[C@@H](CCC(=O)O)C(=O)N[C@@H](CCCNC(=N)N)C(=O)N[C@@H](CCCC)C(=O)N[C@@H](CCC(N)=O)C(=O)N[C@@H](Cc1c[nH]c2ccccc12)C(=O)N[C@@H](CC(C)C)C(=O)N[C@@H](CCCNC(=N)N)C(=O)N[C@@H](CCCCN)C(=O)N[C@@H](CCCCN)C(=O)N[C@@H](CC(C)C)C(=O)N[C@@H](CCC(N)=O)C(=O)N[C@@H](CC(=O)O)C(=O)N[C@H](C(=O)N[C@@H](Cc1c[nH]cn1)C(=O)N[C@@H](CC(N)=O)C(=O)N[C@@H](Cc1ccc(O)cc1)C(N)=O)C(C)C)C(C)C` [[His^5,Nle^8,21,Tyr^34]rPTH(1-34)NH2] (H-AVSEHQL[Nle]HNLGKHLASVER[Nle]QWLRKKLQDVHNY-NH2; N-terminus assumed), for which the figures for the “R0:RG” value in test [1] and in test [1] (listed as His^5-PTH(1-34)) were 753 and 750, respectively. The Emax in test [2] worked out at 34%. For the same molecule, a half-maximal effect in [3] (30 min, room temperature, IBMX) (EC50) was put at 2.7 nM. For the same molecule, the “cAMP in HKRK-B64 cells Emax” value in test [3] is reported as 59 ± 12 picomole/well. The “IP in COS-7/hPTHR cells Emax” value in test [4] is 2,231 ± 229 cpm/well.

With `CCCC[C@H](NC(=O)[C@H](CCCNC(=N)N)NC(=O)[C@H](CCC(=O)O)NC(=O)[C@@H](NC(=O)[C@H](CO)NC(=O)[C@H](C)NC(=O)[C@H](CC(C)C)NC(=O)[C@H](Cc1c[nH]cn1)NC(=O)[C@H](CCCCN)NC(=O)CNC(=O)[C@H](CC(C)C)NC(=O)[C@H](CC(N)=O)NC(=O)[C@H](Cc1c[nH]cn1)NC(=O)[C@H](CCCC)NC(=O)[C@H](CC(C)C)NC(=O)[C@H](CCC(N)=O)NC(=O)[C@@H](NC(=O)[C@H](CCC(=O)O)NC(=O)[C@H](CO)NC(=O)[C@@H](NC(=O)[C@H](C)N)C(C)C)[C@@H](C)CC)C(C)C)C(=O)N[C@@H](CCC(N)=O)C(=O)N[C@@H](Cc1c[nH]c2ccccc12)C(=O)N[C@@H](CC(C)C)C(=O)N[C@@H](CCCNC(=N)N)C(=O)N[C@@H](CCCCN)C(=O)N[C@@H](CCCCN)C(=O)N[C@@H](CC(C)C)C(=O)N[C@@H](CCC(N)=O)C(=O)N[C@@H](CC(=O)O)C(=O)N[C@H](C(=O)N[C@@H](Cc1c[nH]cn1)C(=O)N[C@@H](CC(N)=O)C(=O)N[C@@H](Cc1ccc(O)cc1)C(N)=O)C(C)C` [[Nle^8,21,Tyr^34]rPTH(1-34)NH2, [Nle^8,21,Tyr^34]rat(r)PTH(1-34)NH2, reference compound], the IC50 in test [5] was determined as 0.86 ± 0.24 nM; in test [1] (IC50 RR^0, ^125I-PTH(1-34) + GTPγS), 4.2 ± 0.5 nM. Also, the “R0:RG” value in [1] came out at 5. Further, the “cAMP in HKRK-B64 cells Emax” value in test [3] is on record as 55 ± 12 picomole/well. Moreover, the “IP in COS-7/hPTHR cells Emax” value in [4] is reported as 2,407 ± 138 cpm/well.

Turning to “Ala^1,Aib^3-[M]PTH(1-34) (AV[Aib]EIQLMHQ[hArg]AKWLNSMRRVEWLRKKLQDVHNF) [M-PTH(1-34), M=A1,Aib3,Q10,Har11,A12,W14,R19]”, in test [6], the “calcemic action compared with control peptides, in words” value is recorded as “higher calcemic actions than did PTH(1-34)”. Also, the “ionized calcium response, in words” value in test [7] is “markedly more robust and more sustained than that of PTH(1-34)”. In test [8], the “effect on bone turnover markers, in words” value was “strongly induced increases in markers of both bone formation”. For the same molecule, in [9] (Piximus, mice, 5 nmol/kg i.v. daily 14 days), the “Lumbar Spine BMD” value came out at 0.0524 ± 0.0002 g/cm^2. In addition, in test [9] (mice, 5 nmol/kg i.v. daily 14 days), the “effect on trabecular/cortical bone and BMD, in words” value was “robustly increased trabecular bone, but also detectably diminished cortical bone”. In test [9] (microCT distal femur), the Conn-Dens. is 263 ± 25 1/mm^3, the “Cort Th.” value was found to be 166 ± 6 μm, the “Tb · N” value is on record as 5.22 ± 0.34 1/mm and the “Tb · Th” value worked out at 71.5 ± 1.8 μm. In test [9] (microCT distal femur), this molecule displayed a TbSp of 208 ± 17 μm and a TrabecularBV/TV of 35.0 ± 3.0%. Moreover, in [9] (microCT mid femur), the BA worked out at 0.837 ± 0.022 mm^2, the BA/TA is 40.0 ± 0.8%, the “Cort Th.” value is 151 ± 3 μm and the MA came to 1.26 ± 0.04 mm^2. Further, in [9] (microCT mid femur), the TA is 2.10 ± 0.06 mm^2.

One may read the EC50 as the concentration at which the effect is half-maximal. As a reminder, the IC50 is the concentration that gives 50% inhibition.
